“Also recorded” adds a separate entry of the source.
What was measured:
[1] = tested on: chiens; experiment: Cardiovascular tests in dogs, intraduodenal successive doses; type: in vivo; conditions: chien, injection I.M. de 10 mg/kg
[2] = tested on: système nerveux central (SNC); experiment: General statement of CNS (antidepressant, sedative) properties; type: in vivo
[3] = tested on: chiens; experiment: Influence on isoprenaline effects, dog; type: in vivo; conditions: chien
Description: (§1) b) Sur les mêmes chiens on a étudié l'influence du produit vis à vis de l'isoprénaline et de la noradrénaline.
Avec 10,pg/kg I.V. d'isoprénaline la pression artérielle diastolique du CRL 41 252 passe de 128 à […] ([…] à 6,4 x 10^3 Pa), […]

[4] = tested on: chiens; experiment: Influence on noradrenaline hypertension, dog; type: in vivo; conditions: chien
Procedure: as §1
L'hyptertension à la noradrénaline (2 µg/kg I.V.) est augmentée par le CRL 41 252 ([…]), la pression artérielle systolique passe de 208 à 352 mmHg (soit environ de 2,77 x 10^4 à 4,7 x 10^4Pa) au lieu de 204 à 328 mmHg (soit environ de 2,71 à 4,3 x 10 Pa).

[5] = tested on: chiens; experiment: Cardiovascular tests in dogs, intraduodenal successive doses; type: in vivo, chien
Procedure: a) Quatre chiens (poids moyen : 13,8 kg) anesthésiés au nembutal reçoivent le CRL 41 250 par voie intraduodénale, aux doses successives de 0,1 mg/kg, 0,5 mg/kg, 1 mg/kg, 2,5 mg/kg, 5 mg/kg puis 10 mg/kg. On mesure la pression artérielle, la fréquence cardiaque, le débit artériel fémoral, le débit artériel vertébral, la température rectale et on observe la coloration de la peau.
a) Deux chiens (poids moyen : 14,5 kg) reçoivent le CRL 41 252 par voie intraduodénale, aux doses successives de 0,1 mg/kg, 0,5 mg/kg, 1 mg/kg, 2,5 mg/kg, 5 mg/kg, 10 mg/kg et 20 mg/kg. On mesure la pression artérielle, la fréquence cardiaque, le débit artériel fémoral, le débit artériel vertébral, les températures rectale et cutanée et on observe la coloration de la peau.

[6] = chien, successive I.D. doses 0,1 to 20 mg/kg

## CC(C)(C)NCC(SCC(N)=O)c1ccccc1F (racemic) [CRL 41 252, fumaratede [α-(tertiobutylaminométhyl)-2-fluorobenzyl]-thioacétamide]
[1]
  débits fémoraux: cet effet étant confirmé par l'injection I.M. de 10 mg/kg
[2]
  propriétés antidépressives et sédatives: propriétés antidépressives et sédatives
[3]; after dose cumulée 39,1 mg/kg I.D., control 152
  pression artérielle diastolique, before isoprénaline: 128 mmHg
[3]; after dose cumulée 39,1 mg/kg I.D., control 192
  fréquence cardiaque, before isoprénaline: 215 battements/ minute
[3]; after dose cumulée de 39,1 mg/kg I.D.
  effets de l'isoprénaline: légèrement diminués
[3]; isoprénaline 10,pg/kg I.V., after dose cumulée 39,1 mg/kg I.D., control 48
  pression artérielle diastolique, after isoprénaline: 58 mmHg
[3]; isoprénaline 10,pg/kg I.V., after dose cumulée 39,1 mg/kg I.D., control 310
  fréquence cardiaque, after isoprénaline: 302 battements/ minute
[4]; after dose cumulée 39,1 mg/kg I.D., control 204
  pression artérielle systolique, before noradrénaline: 208 mmHg
[4]; noradrénaline 2 µg/kg I.V., after dose cumulée 39,1 mg/kg I.D., control 328
  pression artérielle systolique, after noradrénaline: 352 mmHg
[4]; noradrénaline 2 µg/kg I.V., dose cumulée de 39,1 mg/kg I.D.
  hypertension à la noradrénaline: augmentée
[5]; [6]
  pression artérielle et fréquence cardiaque: n'a pas d'effet sur la pression artérielle ni sur la fréquence cardiaque
  températures rectale et cutanée: augmente les températures rectale et cutanée
[5]; chien, voie intraduodénale, à partir de 10 mg/kg I.D.
  débits fémoraux: augmente les débits fémoraux à partir de la dose de 10 mg/kg I.D.
[5]; general statement
  effets vasodilatateurs (propriétés cardiovasculaires): effets vasodilatateurs intéressants; also recorded: effets vasodilatateurs bénéfiques

Reference: patent publication EP0158545A1, “[Alpha-(alkylaminomethyl)-benzylthio]-acetic-acid derivatives, process for their preparation and their therapeutic use” (priority 1984, dated 1985)
